Source: patent publication US9040715B2 (priority 2008, dated 2015)
In brackets after ≈: the same amount, converted by molar mass.

Experiments:
Candida glabrata = assay: Anti-fungal/anti-yeast activity: MIC50 (broth microdilution) and MFC; assay type: cell-based; details: for Activity (fungicidal/fungistatic) / Ratio MFC/MIC: Candida glabrata; for MFC / MIC: Nakaseomyces glabratus; for MIC: read-out: MIC-50
Description: (§1) Fluconazole, an ergosterol inhibitor, and the beta-1,3-glucan inhibitor micafungin served as controls (See Tables 1-8).
(§2) The minimum inhibitory concentrations resulting in 50% growth inhibition (MIC50) of […] Candida species (C. albicans, C. tropicalis and C. glabrata, C. lusitaniae, C. parapsilosis, and C. apicola) as well as Aspergillus fumigatus to a set of novel synthetic compounds was determined in accordance with the guidelines in CLSI document M27-A2 (Clinical and Laboratory Standards Institute; Wayne, Pa.). The total volume of cells and drug was 100 μL per microtiter well, and each drug was diluted in RPMI to achieve final concentrations of 0.2-100 μg/ml. Uninoculated cultures were used as a reference standard. Stock inoculum suspensions were prepared from 24 hour cultures on YPD (yeast extract/peptone/dextrose) media at 30° C. For MIC determinations, an inoculum of 1.0×10^3 cells of Candidia and 2.0×10^3 cells of Aspergillus per well were used, and cells in diluted drugs were prepared in RPMI-1640 medium. MICs were determined both visually and spectrophotometrically at 24 hours and 48 h at 550 nm using a micro plate reader. The MIC50 endpoint was measured as the lowest drug concentration resulting in a reduction of growth of 50% or more compared with growth of the control.
(§3) The minimum fungicidal concentrations (MFCs) were determined for each drug-isolate-medium combination as follows. After 48 hours of incubation, 100 μL of each drug-isolate-medium combination (2 plates) was subcultured onto YPD plates (100 μL of solution was spread over the YPD plate). […] The plates were then incubated at 30° C. for 48 hours.
(§4) The in vitro fungicidal activities (MFCs) were determined for each drug-isolate-medium combination as follows. After 48 hours of incubation, 10 μL each drug-isolate-medium combination was spotted onto YPD plates (10 μL of each well is spotted sequentially with positive and negative control wells). […] The plates were then incubated at 30° C. for 48 hours.

Candida albicans (CAF-2) = assay: as above; assay type: cell-based; details: for MIC: read-out: MIC-50
Description: as §1, §2, §3, §4

Aspergillus fumigatus = assay: as above; assay type: cell-based
Description: as §1, §2, §3, §4

Candidia parapsilosis = assay: as above; assay type: cell-based; details: for Activity (fungicidal/fungistatic) / Ratio MFC/MIC: Candidia parapsilosis; for MIC: read-out: MIC-50
Description: as §1, §2, §3, §4

Candida apicola = assay: as above; assay type: cell-based; details: for Activity (fungicidal/fungistatic) / MIC-50 / Ratio MFC/MIC: Candida apicola; for MFC: Starmerella apicola
Description: as §1, §2, §3, §4

Candida lusitaniae = assay: as above; assay type: cell-based; details: for Activity (fungicidal/fungistatic) / Ratio MFC/MIC: Candida lusitaniae; for MFC / MIC: Clavispora lusitaniae; for MIC: read-out: MIC-50
Description: as §1, §2, §3, §4

Candida tropicalis = assay: as above; assay type: cell-based; details: for MIC: read-out: MIC-50
Description: as §1, §2, §3, §4

Huh7 cells = assay: Neutral red uptake assay (cytotoxicity); assay type: cell-based, human
From the text: The neutral red uptake assay is a cytotoxicity test that is based on the ability of viable cells to incorporate and bind the supra-vital dye neutral red in the lysosomes. This weakly cationic dye penetrates cell membranes by non-ionic passive diffusion and concentrates in the lysosomes, where it binds by electrostatic hydrophobic bonds to anionic and phosphate groups of the lysosomal matrix. The dye is then extracted from the viable cells using an acidified ethanol solution, and the absorbance of the solubilized dye is read. When the cell dies or the pH gradient is reduced, the dye is not retained and consequently, the amount of retained dye is proportional to the number of viable cells. Most primary cells and cell lines can be used for this method. The HepG2 and Huh7, two human hepatoma cell lines, were used for this study. The cells were seeded in 96-well tissue culture plates and treated for 48 hours with the compounds. The plates were then incubated for 2 hours with a medium containing neutral red. The cells were subsequently washed, the dye was extracted in each well, and the absorbance was read using a spectrophotometer (FIG. 3 and Table 11).

Huh7 or HepG2 cell line = assay: MTT assay (cytotoxicity); assay type: cell-based, human; details: 24 hours and 48 hours
Description: The MTT assay is a colorimetric assay that measures the reduction of yellow 3-(4,5-dimethylhiazol-2-yl)-2,5-diphenyl tetrazolium bromide (MTT) by mitochondrial succinate dehydrogenase. The MTT enters the cells and passes into the mitochondria where it is reduced to an insoluble, dark purple, formazan product. The cells are then solubilized with an organic solvent (e.g., isopropanol) and the released, solubilized formazan reagent is measured spectrophotometrically. Since reduction of MTT can only occur in metabolically active cells, the level of activity is a measure of the viability of the cells.
Cells of the Huh7 or HepG2 cell line were seeded in a 96 well plate. The plate was incubated overnight at 37° C. in a humidified incubator, 5% CO2. The test compounds were added to the plate. Different concentrations of drug were tested in triplicate along with a negative control. The final volume was adjusted to 100 μl per well. The plate was incubated overnight at 37° C. in a humidified incubator, 5% CO2. After 24 hours and 48 hours, MTT reagent (5 mg/ml, 10 μl/100 μl per well of the 96 well plate) was added and incubated at 37° C. for 3 hours. After 3 hours, 100 μl of the DMSO solution was added to each well and the plate was rocked at room temperature for 1 hour. The plate was then read on a plate reader at […].

[1] = tested on: Saccharomyces cerevisiae (YPH501); assay: Anti-fungal/anti-yeast activity: MIC50 (broth microdilution) and MFC; assay type: cell-based; details: for MFC / MIC: Saccharomyces cerevisiae; for Activity (fungicidal/fungistatic) / Ratio MFC/MIC: Saccharomyces cerevisiae (YPH501); for MIC: read-out: MIC-50

Row | SMILES | Activity (fungicidal/fungistatic) (Candida glabrata) | Ratio MFC/MIC (Candida glabrata) | MFC (Candida glabrata) | MIC (Candida glabrata) | Activity (fungicidal/fungistatic) (Candida albicans (CAF-2)) | MFC (Candida albicans (CAF-2)) | Ratio MFC/MIC (Candida albicans (CAF-2)) | MIC (Candida albicans (CAF-2)) | MFC (Candidia parapsilosis) | Activity (fungicidal/fungistatic) (Candidia parapsilosis) | Ratio MFC/MIC (Candidia parapsilosis) | MIC (Candidia parapsilosis) | Activity (fungicidal/fungistatic) (Candida apicola) | MIC-50 (Candida apicola) | Ratio MFC/MIC (Candida apicola) | MFC (Candida apicola) | Activity (fungicidal/fungistatic) (Candida lusitaniae) | Ratio MFC/MIC (Candida lusitaniae) | MFC (Candida lusitaniae) | MIC (Candida lusitaniae) | other results
1 | COc1ccc(Cc2nnc(Cn3sc4ccccc4c3=O)o2)cc1 [Compound I-3] | fungicidal (An MFC/MIC ratio of less than four indicates that the compound is fungicidal) | 2 | 50 µg/mL | 25 µg/mL | fungicidal (An MFC/MIC ratio of less than four indicates that the compound is fungicidal) | 12.5 µg/mL | 1 | 12.5 µg/mL | 12.5 µg/mL | fungicidal (An MFC/MIC ratio of less than four indicates that the compound is fungicidal) | 2 | 6.4 µg/mL | fungicidal (An MFC/MIC ratio of less than four indicates that the compound is fungicidal) | 6.4 µg/mL | 2 | 12.5 µg/mL | fungicidal (An MFC/MIC ratio of less than four indicates that the compound is fungicidal) | 2 | 12.5 µg/mL | 6.4 µg/mL | Activity (fungicidal/fungistatic) (Aspergillus fumigatus): fungicidal (An MFC/MIC ratio of less than four indicates that the compound is fungicidal); MFC (Aspergillus fumigatus): 12.5 µg/mL; MIC50 (Aspergillus fumigatus): 6.4 µg/mL; Ratio MFC/MIC (Aspergillus fumigatus): 2; Activity (fungicidal/fungistatic) (Candida tropicalis): fungicidal (An MFC/MIC ratio of less than four indicates that the compound is fungicidal); MFC (Candida tropicalis): 12.5 µg/mL; Ratio MFC/MIC (Candida tropicalis): 2; MIC (Candida tropicalis): 6.4 µg/mL; Percentage Viability (Huh7 cells; 3.3 μg/mL (approx 1X MIC)): >100%; Percentage Viability (Huh7 cells; 10 μg/mL (approx 3X MIC)): >100%; Percentage Viability (Huh7 cells; 33 μg/mL (approx 10X MIC)): >100%; Percentage Viability (Huh7 cells; 100 μg/mL (approx 30X MIC)): >100%; Toxicity to mammalian cell lines (MTT assay) (Huh7 or HepG2 cell line): minimally toxic; MFC [1]: 12.5 µg/mL (≈ 35.4 µM); Activity (fungicidal/fungistatic) [1]: fungicidal (An MFC/MIC ratio of less than four indicates that the compound is fungicidal); Ratio MFC/MIC [1]: 1; MIC [1]: 12.5 µg/mL (≈ 35.4 µM)
2 | O=c1c2ccccc2sn1Cc1nnc(Cc2ccccc2)o1 [Compound I-4] | fungicidal (An MFC/MIC ratio of less than four indicates that the compound is fungicidal) | 1 | 12.5 µg/mL | 12.5 µg/mL | fungicidal (An MFC/MIC ratio of less than four indicates that the compound is fungicidal) | 6.4 µg/mL | 1 | 6.4 µg/mL | 12.5 µg/mL | fungicidal (An MFC/MIC ratio of less than four indicates that the compound is fungicidal) | 1 | 12.5 µg/mL | fungicidal (An MFC/MIC ratio of less than four indicates that the compound is fungicidal) | 12.5 µg/mL | 1 | 12.5 µg/mL | fungicidal (An MFC/MIC ratio of less than four indicates that the compound is fungicidal) | 1 | 12.5 µg/mL | 12.5 µg/mL | Activity (fungicidal/fungistatic) (Candida tropicalis): fungicidal (An MFC/MIC ratio of less than four indicates that the compound is fungicidal); MFC (Candida tropicalis): 12.5 µg/mL; Ratio MFC/MIC (Candida tropicalis): 1; MIC (Candida tropicalis): 12.5 µg/mL; Percentage Viability (Huh7 cells; 3.3 μg/mL (approx 1X MIC)): >100%; Percentage Viability (Huh7 cells; 10 μg/mL (approx 3X MIC)): >100%; Percentage Viability (Huh7 cells; 33 μg/mL (approx 10X MIC)): >100%; Percentage Viability (Huh7 cells; 100 μg/mL (approx 30X MIC)): 75%; Toxicity to mammalian cell lines (MTT assay) (Huh7 or HepG2 cell line): minimally toxic; MFC [1]: 6 µg/mL (≈ 18.6 µM); Activity (fungicidal/fungistatic) [1]: fungicidal (An MFC/MIC ratio of less than four indicates that the compound is fungicidal); Ratio MFC/MIC [1]: 1; MIC [1]: 6 µg/mL (≈ 18.6 µM)
3 | CC(=O)NNC(=O)Cn1sc2ccccc2c1=O [Compound I-7] | fungicidal (An MFC/MIC ratio of less than four indicates that the compound is fungicidal) | 2 | 50 µg/mL | 25 µg/mL | fungicidal (An MFC/MIC ratio of less than four indicates that the compound is fungicidal) | 6.4 µg/mL | 1 | 6.4 µg/mL | 12.5 µg/mL | fungicidal (An MFC/MIC ratio of less than four indicates that the compound is fungicidal) | 1 | 12.5 µg/mL | fungicidal (An MFC/MIC ratio of less than four indicates that the compound is fungicidal) | 12.5 µg/mL | 1 | 12.5 µg/mL | fungicidal (An MFC/MIC ratio of less than four indicates that the compound is fungicidal) | 1 | 12.5 µg/mL | 12.5 µg/mL | Activity (fungicidal/fungistatic) (Candida tropicalis): fungicidal (An MFC/MIC ratio of less than four indicates that the compound is fungicidal); MFC (Candida tropicalis): 12.5 µg/mL; Ratio MFC/MIC (Candida tropicalis): 1; MIC (Candida tropicalis): 12.5 µg/mL; Percentage Viability (Huh7 cells; 3.3 μg/mL (approx 1X MIC)): >100%; Percentage Viability (Huh7 cells; 10 μg/mL (approx 3X MIC)): >100%; Percentage Viability (Huh7 cells; 33 μg/mL (approx 10X MIC)): >100%; Percentage Viability (Huh7 cells; 100 μg/mL (approx 30X MIC)): >100%; Toxicity to mammalian cell lines (MTT assay) (Huh7 or HepG2 cell line): minimally toxic; MFC [1]: 12.5 µg/mL (≈ 47.1 µM); Activity (fungicidal/fungistatic) [1]: fungicidal (An MFC/MIC ratio of less than four indicates that the compound is fungicidal); Ratio MFC/MIC [1]: 1; MIC [1]: 12.5 µg/mL (≈ 47.1 µM)
